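Compound exposure: 48 hours, 5 concentrations, 96-well plates. GI50: concentration for 50% inhibition of growth. Definition used: TGI = concentration required for complete inhibition of growth.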
Columns and labels:
Assay in all cases: growth of human tumour cells (NCI), 48 h
SNB-75 CNS = tested on: SNB-75 CNS
MCF7 breast = tested on: MCF7 breast
T-47D breast = tested on: T-47D breast
CCRF-CEM leukemia = tested on: CCRF-CEM leukemia
HCT-116 colon = tested on: HCT-116 colon
NCI-H460 lung = tested on: NCI-H460 lung
HOP-92 NSCLC = tested on: HOP-92 NSCLC
OVCAR-3 ovarian = tested on: OVCAR-3 ovarian
UACC-257 melanoma = tested on: UACC-257 melanoma
ACHN renal = tested on: ACHN renal
MDA-MB-435 = tested on: MDA-MB-435
BT-549 breast = tested on: BT-549 breast
SF-295 CNS = tested on: SF-295 CNS
MDA-MB-231 breast = tested on: MDA-MB-231 breast
KM12 colon = tested on: KM12 colon
PC-3 prostate = tested on: PC-3 prostate
NCI-H522 lung = tested on: NCI-H522 lung
SF-268 CNS = tested on: SF-268 CNS
UO-31 renal = tested on: UO-31 renal
LOX IMVI melanoma = tested on: LOX IMVI melanoma
786-0 renal = tested on: 786-0 renal
EKVX NSCLC = tested on: EKVX NSCLC
NCI-H23 lung = tested on: NCI-H23 lung
UACC-62 melanoma = tested on: UACC-62 melanoma
K-562 leukemia = tested on: K-562 leukemia
IGROV1 ovarian = tested on: IGROV1 ovarian
U251 CNS = tested on: U251 CNS
SK-MEL-28 melanoma = tested on: SK-MEL-28 melanoma
SK-MEL-2 melanoma = tested on: SK-MEL-2 melanoma

Structure (SMILES): CC(=O)N1CCN(CCNC(=O)n2cc(-c3ccncc3)c(-c3cc(O)cc(Cl)c3)n2)CC1
- TGI (SNB-75 CNS): 41.4 µM
- GI50 (MCF7 breast): 14.7 µM
- TGI (MCF7 breast): 32.9 µM
- GI50 (T-47D breast): 16.6 µM
- TGI (T-47D breast): 49.2 µM
- GI50 (CCRF-CEM leukemia): 11.8 µM
- TGI (CCRF-CEM leukemia): 66.5 µM
- GI50 (HCT-116 colon): 5.47 µM
- TGI (HCT-116 colon): 18.8 µM
- GI50 (NCI-H460 lung): 10.1 µM
- TGI (NCI-H460 lung): 26.3 µM
- GI50 (HOP-92 NSCLC): 5.93 µM
- TGI (HOP-92 NSCLC): 24.3 µM
- GI50 (OVCAR-3 ovarian): 17.3 µM
- TGI (OVCAR-3 ovarian): 46.5 µM
- GI50 (UACC-257 melanoma): 1.85 µM
- TGI (UACC-257 melanoma): 4.61 µM
- GI50 (ACHN renal): 8.26 µM
- TGI (ACHN renal): 61.9 µM
- GI50 (MDA-MB-435): 2.7 µM
- TGI (MDA-MB-435): 15.7 µM
- GI50 (BT-549 breast): 13 µM
- TGI (BT-549 breast): 27.1 µM
- GI50 (SF-295 CNS): 10.5 µM
- TGI (SF-295 CNS): 25.7 µM
- GI50 (MDA-MB-231 breast): 11.7 µM
- TGI (MDA-MB-231 breast): 26.7 µM
- GI50 (KM12 colon): 14 µM
- TGI (KM12 colon): 34.4 µM
- GI50 (PC-3 prostate): 13.6 µM
- TGI (PC-3 prostate): 57.6 µM
- GI50 (NCI-H522 lung): 14.9 µM
- TGI (NCI-H522 lung): 34.1 µM
- GI50 (SF-268 CNS): 14.6 µM
- TGI (SF-268 CNS): 35.2 µM
- GI50 (UO-31 renal): 8.95 µM
- TGI (UO-31 renal): 22.5 µM
- GI50 (LOX IMVI melanoma): 6.85 µM
- TGI (LOX IMVI melanoma): 22.7 µM
- GI50 (786-0 renal): 10.2 µM
- TGI (786-0 renal): 23.3 µM
- GI50 (EKVX NSCLC): 24.6 µM
- TGI (EKVX NSCLC): > 100 µM
- GI50 (NCI-H23 lung): 17.1 µM
- TGI (NCI-H23 lung): 46 µM
- GI50 (UACC-62 melanoma): 2.95 µM
- TGI (UACC-62 melanoma): 16.2 µM
- GI50 (K-562 leukemia): 4.41 µM
- TGI (K-562 leukemia): 29.4 µM
- GI50 (IGROV1 ovarian): 18.5 µM
- TGI (IGROV1 ovarian): 55.1 µM
- GI50 (U251 CNS): 10.9 µM
- TGI (U251 CNS): 26.1 µM
- GI50 (SK-MEL-28 melanoma): 3.92 µM
- TGI (SK-MEL-28 melanoma): 16.8 µM
- GI50 (SK-MEL-2 melanoma): 10.8 µM
- TGI (SK-MEL-2 melanoma): 27 µM
